Measurements as given in patent US20020041848A1, “Chemically Specific Imaging Of Tissue” (priority 1999, published 2002).

Key:
[1] = test system: lab rats; conditions: cited from earlier work
[2] = test system: human finger tip; conditions: in vivo, 5 min
Description: Raman spectra were collected from a human finger tip irradiated with a near-infrared laser beam using conventional equipment, including a light collection and analysis system. Test agents were applied to the finger tip and allowed to penetrate the tissue for 5 minutes before rinsing the finger tip with acetone.

| Structure (SMILES) | symptoms at about double the 10-15% body water replacement ([1]; lab rats, continuous regimen of D2O) | share of total body water weight replaced by D2O below which there are no signs of ingestion or poisoning ([1]; rat, in vivo) | depth of penetration indicated by persistence of peak near 2200 cm^-1 [2] |
| --- | --- | --- | --- |
| [2H]O[2H] [D2O] | severe | 10-15% | – |
| [2H]C([2H])([2H])C([2H])([2H])C([2H])([2H])C([2H])([2H])C([2H])([2H])C([2H])([2H])C([2H])([2H])C([2H])([2H])C([2H])([2H])C([2H])([2H])C([2H])([2H])C([2H])([2H])C([2H])([2H])C([2H])([2H])C([2H])([2H])C([2H])([2H])C([2H])([2H])C(=O)O [stearic acid-d35] | – | – | 1-2 mm |
